Columns and labels:
[1] = tested on: CAKI-1; assay: Cytotoxicity against human CAKI-1 cells assessed as growth inhibition at 10 uM after 48 hrs by sulforhodamine B assay; assay type: functional; settings: read-out: GI
[2] = tested on: UACC-62; assay: Cytotoxicity against human UACC-62 cells assessed as growth inhibition at 10 uM after 48 hrs by sulforhodamine B assay; assay type: functional; settings: read-out: GI
[3] = tested on: MOLT-4; assay: Cytotoxicity against human MOLT-4 cells assessed as growth inhibition at 10 uM after 48 hrs by sulforhodamine B assay; assay type: functional; settings: read-out: GI
[4] = tested on: SF-268; assay: Cytotoxicity against human SF-268 cells assessed as growth inhibition at 10 uM after 48 hrs by sulforhodamine B assay; assay type: functional; settings: read-out: GI
[5] = tested on: CCRF-CEM; assay: Cytotoxicity against human CCRF-CEM cells assessed as growth inhibition at 10 uM after 48 hrs by sulforhodamine B assay; assay type: functional; settings: read-out: GI
[6] = Cytotoxicity against human Hs 578T cells assessed as growth inhibition at 10 uM after 48 hrs by sulforhodamine B assay; assay type: functional; settings: read-out: GI
[7] = tested on: U-251; assay: Cytotoxicity against human U-251 cells assessed as growth inhibition at 10 uM after 48 hrs by sulforhodamine B assay; assay type: functional; settings: read-out: GI
[8] = tested on: K562; assay: Cytotoxicity against human K562 cells assessed as growth inhibition at 10 uM after 48 hrs by sulforhodamine B assay; assay type: functional; settings: read-out: GI
[9] = tested on: SF-539; assay: Cytotoxicity against human SF-539 cells assessed as growth inhibition at 10 uM after 48 hrs by sulforhodamine B assay; assay type: functional; settings: read-out: GI
[10] = tested on: SR; assay: Cytotoxicity against human SR cells assessed as growth inhibition at 10 uM after 48 hrs by sulforhodamine B assay; assay type: functional; settings: read-out: GI
[11] = tested on: MDA-MB-231; assay: Cytotoxicity against human MDA-MB-231 cells assessed as growth inhibition at 10 uM after 48 hrs by sulforhodamine B assay; assay type: functional; settings: read-out: GI
[12] = tested on: HOP-62; assay: Cytotoxicity against human HOP-62 cells assessed as growth inhibition at 10 uM after 48 hrs by sulforhodamine B assay; assay type: functional; settings: read-out: GI
[13] = tested on: SNB-19; assay: Cytotoxicity against human SNB-19 cells assessed as growth inhibition at 10 uM after 48 hrs by sulforhodamine B assay; assay type: functional; settings: read-out: GI
[14] = tested on: MCF7; assay: Cytotoxicity against human MCF7 cells assessed as growth inhibition at 10 uM after 48 hrs by sulforhodamine B assay; assay type: functional; settings: read-out: GI
[15] = tested on: HL-60(TB); assay: Cytotoxicity against human HL-60(TB) cells assessed as growth inhibition at 10 uM after 48 hrs by sulforhodamine B assay; assay type: functional; settings: read-out: GI
[16] = tested on: UO-31; assay: Cytotoxicity against human UO-31 cells assessed as growth inhibition at 10 uM after 48 hrs by sulforhodamine B assay; assay type: functional; settings: read-out: GI
[17] = tested on: UACC-257; assay: Cytotoxicity against human UACC-257 cells assessed as growth inhibition at 10 uM after 48 hrs by sulforhodamine B assay; assay type: functional; settings: read-out: GI
[18] = tested on: NCI-H522; assay: Cytotoxicity against human NCI-H522 cells assessed as growth inhibition at 10 uM after 48 hrs by sulforhodamine B assay; assay type: functional; settings: read-out: GI
[19] = tested on: T47D; assay: Cytotoxicity against human T47D cells assessed as growth inhibition at 10 uM after 48 hrs by sulforhodamine B assay; assay type: functional; settings: read-out: GI
[20] = tested on: NCI-H226; assay: Cytotoxicity against human NCI-H226 cells assessed as growth inhibition at 10 uM after 48 hrs by sulforhodamine B assay; assay type: functional; settings: read-out: GI
[21] = tested on: OVCAR-4; assay: Cytotoxicity against human OVCAR-4 cells assessed as growth inhibition at 10 uM after 48 hrs by sulforhodamine B assay; assay type: functional; settings: read-out: GI
[22] = tested on: SN12C; assay: Cytotoxicity against human SN12C cells assessed as growth inhibition at 10 uM after 48 hrs by sulforhodamine B assay; assay type: functional; settings: read-out: GI
[23] = biological target: T1, Phosphatidylinositol 4,5-bisphosphate 3-kinase catalytic subunit delta isoform (Homo sapiens, UniProt O00329); assay: Inhibition of PI3Kdelta (unknown origin) using PIP2 as substrate preincubated for 10 mins followed by substrate addition and measured after 1 hr by ELISA
T1 sequence (O00329 whole entry): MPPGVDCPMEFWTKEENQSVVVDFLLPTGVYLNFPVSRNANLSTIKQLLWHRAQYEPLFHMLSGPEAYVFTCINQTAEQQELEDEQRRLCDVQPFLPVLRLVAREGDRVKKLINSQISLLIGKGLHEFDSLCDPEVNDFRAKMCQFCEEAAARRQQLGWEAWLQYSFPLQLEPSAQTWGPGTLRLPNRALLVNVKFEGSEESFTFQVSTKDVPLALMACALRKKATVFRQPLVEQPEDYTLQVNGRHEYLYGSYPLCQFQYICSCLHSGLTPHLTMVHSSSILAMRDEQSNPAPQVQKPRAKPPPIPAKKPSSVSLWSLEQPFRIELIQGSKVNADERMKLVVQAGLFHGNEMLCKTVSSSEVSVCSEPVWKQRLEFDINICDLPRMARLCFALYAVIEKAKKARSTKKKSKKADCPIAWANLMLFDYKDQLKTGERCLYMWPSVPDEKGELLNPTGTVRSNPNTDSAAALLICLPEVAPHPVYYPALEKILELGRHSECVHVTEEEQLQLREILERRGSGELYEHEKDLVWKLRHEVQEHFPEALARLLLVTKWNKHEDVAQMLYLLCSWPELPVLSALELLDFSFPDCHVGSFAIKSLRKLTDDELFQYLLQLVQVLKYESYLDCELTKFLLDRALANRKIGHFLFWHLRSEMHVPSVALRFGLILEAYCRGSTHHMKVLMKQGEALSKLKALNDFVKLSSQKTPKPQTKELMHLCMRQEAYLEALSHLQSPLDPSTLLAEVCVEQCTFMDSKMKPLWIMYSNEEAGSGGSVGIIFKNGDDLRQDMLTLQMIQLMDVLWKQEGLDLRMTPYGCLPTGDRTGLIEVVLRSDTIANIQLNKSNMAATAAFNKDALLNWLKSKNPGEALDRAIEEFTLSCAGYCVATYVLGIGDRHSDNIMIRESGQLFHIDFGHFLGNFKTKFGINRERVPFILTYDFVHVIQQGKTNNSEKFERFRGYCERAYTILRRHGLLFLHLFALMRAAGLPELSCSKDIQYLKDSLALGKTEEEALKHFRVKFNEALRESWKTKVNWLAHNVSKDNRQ

COC(=O)/C=C1\S/C(=N\N=C\c2ccc(OS(=O)(=O)C(F)(F)C(F)(F)C(F)(F)C(F)(F)C(F)(F)C(F)(F)F)cc2)N(c2ccccc2)C1=O
inhibition of growth at 10 µM [1]: 28% | inhibition of growth at 10 µM [2]: 17.6% | inhibition of growth at 10 µM [3]: 13.4% | inhibition of growth at 10 µM [4]: 10.4% | inhibition of growth at 10 µM [5]: 22.7% | inhibition of growth at 10 µM [6]: 23.7% | inhibition of growth at 10 µM [7]: 10.4% | inhibition of growth at 10 µM [8]: 39% | inhibition of growth at 10 µM [9]: 13.7% | inhibition of growth at 10 µM [10]: 32.7% | inhibition of growth at 10 µM [11]: 12.8% | inhibition of growth at 10 µM [12]: 13.1% | inhibition of growth at 10 µM [13]: 26.4%

COC(=O)/C=C1\S/C(=N\N=C\c2ccc(OS(=O)(=O)C(F)(F)C(F)(F)C(F)(F)C(F)(F)F)cc2)N(c2ccccc2)C1=O
inhibition of growth at 10 µM [2]: 21.6% | inhibition of growth at 10 µM [14]: 10%

O=S(=O)(Oc1ccc(-c2nnc(Nc3ccccc3)s2)cc1)C(F)(F)C(F)(F)C(F)(F)C(F)(F)C(F)(F)C(F)(F)F
inhibition of growth at 10 µM [15]: 29.4% | inhibition of growth at 10 µM [10]: 80.5% | inhibition of growth at 10 µM [11]: 13.1%

O=S(=O)(Oc1ccc(/C=N/NC(=S)Nc2ccccc2)cc1)C(F)(F)C(F)(F)C(F)(F)C(F)(F)F
inhibition of growth at 10 µM [14]: 14.2% | inhibition of growth at 10 µM [16]: 11.8% | inhibition of growth at 10 µM [17]: 14.3%

FC(F)(F)c1ccc(-c2nnc(Nc3ccccc3)s2)cc1
inhibition of growth at 10 µM [18]: 11% | inhibition of growth at 10 µM [1]: 11.7% | inhibition of growth at 10 µM [15]: 26.2% | inhibition of growth at 10 µM [8]: 13.7% | inhibition of growth at 10 µM [14]: 11.4% | inhibition of growth at 10 µM [10]: 24.9%

FC(F)(F)c1ccc(/C=N/N=c2\scc(-c3ccccc3)n2-c2ccccc2)cc1
inhibition of growth at 10 µM [14]: 41.1%

O=S(=O)(Oc1ccc(-c2nnc(Nc3ccccc3)s2)cc1)C(F)(F)C(F)(F)C(F)(F)C(F)(F)F
inhibition of growth at 10 µM [19]: 14.1% | inhibition of growth at 10 µM [1]: 22.1% | inhibition of growth at 10 µM [2]: 10.7% | inhibition of growth at 10 µM [20]: 15.8% | inhibition of growth at 10 µM [21]: 17.2% | inhibition of growth at 10 µM [8]: 12.6% | inhibition of growth at 10 µM [14]: 12.8% | inhibition of growth at 10 µM [10]: 10.1% | inhibition of growth at 10 µM [16]: 19.9% | inhibition of growth at 10 µM [22]: 14.5% | inhibition of growth at 10 µM [12]: 12.4%

O=c1cc(N2CCOCC2)oc2c(-c3ccccc3)cccc12 [LY-294002]
IC50 [23]: 14.9 µM

O=S(=O)(Oc1ccc(/C=N/N=c2\scc(-c3ccccc3)n2-c2ccccc2)cc1)C(F)(F)C(F)(F)C(F)(F)C(F)(F)C(F)(F)C(F)(F)C(F)(F)C(F)(F)F
inhibition of growth at 10 µM [14]: 46.1%
